Laboratory results published in ChEMBL document CHEMBL4312016, “Amide-sulfamide modulators as effective anti-tumor metastatic agents targeting CXCR4/CXCL12 axis” (Eur J Med Chem, 2020).
Active and inactive are the calls of the source. No cut-off for these calls is given here.

Legend:
[1] = molecular target: C-X-C chemokine receptor type 4 (Homo sapiens) (UniProt P61073); assay: Competitive binding affinity at CXCR4 in human MDA-MB-231 cells preincubated for 10 mins followed by biotinylated TN14003 addition further incubated for 30 mins by fluorescence microscopy; assay type: cell-based
[2] = molecular target: C-X-C chemokine receptor type 4 (Homo sapiens) (UniProt P61073); assay: Inhibition of CXCR4-mediated chemotaxis in human MDA-MB-231 cells assessed as reduction in CXCL12alpha-induced cell invasion after 22 hrs by hematoxylin/eosin dye-based matrigel assay relative to control; parameters: concentration or dose not given beside the values; conditions: concentration not given here
[3] = system: MDA-MB-231; assay: Inhibition of cell migration in human MDA-MB-231 cells at 10 uM incubated for 24 hrs by inverted microscopy; assay type: functional, cell-based
[4] = system: HUVEC; assay: Antiangiogenic activity in HUVEC assessed as inhibition of tube formation at 10 uM incubated for 4 hrs by matrigel assay; assay type: functional, cell-based; conditions: Homo sapiens
[5] = system: MDA-MB-231; assay: Inhibition of fibronectin-induced cell adhesion in human MDA-MB-231 cells at 1 to 10 uM incubated for 6 hrs by inverted microscopy; assay type: functional, cell-based
[6] = molecular target: C-X-C chemokine receptor type 4 (Homo sapiens) (UniProt P61073); assay: Inhibition of CXCR4-mediated chemotaxis in human MDA-MB-231 cells assessed as reduction in CXCL12alpha-induced cell invasion after 22 hrs by hematoxylin/eosin dye-based matrigel assay
[7] = Toxicity in BALB/c mouse xenografted with human MDA-MB-231 cells assessed as effect on body weight at 20 mg/kg, po administered twice a day for 2 weeks; assay type: organism-based; conditions: in vivo, 336 h
[8] = system: MDA-MB-231; assay: Antimetastatic activity against human MDA-MB-231 cells xenografted in BALB/c mouse assessed as reduction in lung metastatic nodules at 20 mg/kg, ip administered twice a day for 2 weeks and measured on day 14; assay type: functional, organism-based
[9] = system: MDA-MB-231; assay: Antimetastatic activity against human MDA-MB-231 cells xenografted in BALB/c mouse assessed as reduction in lung metastasis at 20 mg/kg, ip administered twice a day for 2 weeks and measured on day 14 relative to control; assay type: functional; conditions: MDA-MB-231, ip, 336 h
[10] = system: MDA-MB-231; assay: Inhibition of metastasis in human MDA-MB-231 cells assessed as decrease in p-mTOR expression at 10 uM incubated for 24 hrs by Western blot analysis; assay type: functional, cell-based
[11] = system: MDA-MB-231; assay: Inhibition of cell migration in human MDA-MB-231 cells incubated for 24 hrs by inverted microscopy; assay type: functional, cell-based
[12] = system: MDA-MB-231; assay: Inhibition of metastasis in human MDA-MB-231 cells assessed as decrease in p-4E-BP1 expression at 10 uM incubated for 24 hrs by Western blot analysis; assay type: functional, cell-based
[13] = system: MDA-MB-231; assay: Inhibition of metastasis in human MDA-MB-231 cells assessed as decrease in P70S6K expression at 10 uM incubated for 24 hrs by Western blot analysis; assay type: functional, cell-based

C-X-C chemokine receptor type 4 (Homo sapiens), sequence (P61073 whole entry): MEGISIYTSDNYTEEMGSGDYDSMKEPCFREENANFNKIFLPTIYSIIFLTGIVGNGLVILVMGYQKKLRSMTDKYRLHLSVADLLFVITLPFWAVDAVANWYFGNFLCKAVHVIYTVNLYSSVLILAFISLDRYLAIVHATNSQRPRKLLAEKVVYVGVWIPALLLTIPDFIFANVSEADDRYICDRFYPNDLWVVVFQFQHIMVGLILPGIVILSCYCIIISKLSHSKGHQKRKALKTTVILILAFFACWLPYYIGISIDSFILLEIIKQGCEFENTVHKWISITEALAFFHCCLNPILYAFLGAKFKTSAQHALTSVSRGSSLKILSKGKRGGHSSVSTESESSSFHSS

SMILES: O=C(NCc1ccc(CNS(=O)(=O)c2cccc(Cl)c2)cc1)c1cccnc1
- EC [1]: 100 nM

SMILES: COc1ccccc1C(=O)NCc1ccc(CNS(=O)(=O)c2cccc(C)c2)cc1
- EC [1]: 1000 nM

SMILES: Cc1cccc(S(=O)(=O)NCc2ccc(CNC(=O)c3ccccc3C)cc2)c1
- EC [1]: 1000 nM

SMILES: Cc1ccccc1C(=O)NCc1ccc(CNS(=O)(=O)c2ccccc2C)cc1
- inhibition [2]: 99%
- inhibition [3]: Active
- EC [1]: 10 nM
- inhibition [4]: Active
- inhibition [5]: Active

SMILES: COc1ccccc1C(=O)NCc1ccc(CNS(=O)(=O)c2ccccc2C)cc1
- EC [1]: 1000 nM

SMILES: Cc1ccccc1C(=O)NCc1ccc(CNS(=O)(=O)c2ccccc2Cl)cc1
- EC [1]: 1000 nM

SMILES: O=C(NCc1ccc(CNS(=O)(=O)c2cccc3ccccc23)cc1)c1cccnc1
- EC [1]: 1000 nM

SMILES: COc1ccccc1C(=O)NCc1ccc(CNS(=O)(=O)c2ccc(F)cc2)cc1
- EC [1]: 100 nM

SMILES: COc1ccccc1C(=O)NCc1ccc(CNS(=O)(=O)c2cccc(Cl)c2)cc1
- EC [1]: 1000 nM

SMILES: COc1ccccc1C(=O)NCc1ccc(CNS(=O)(=O)c2cccc3ccccc23)cc1
- EC [1]: > 1000 nM

SMILES: COc1ccccc1C(=O)NCc1ccc(CNS(=O)(=O)c2ccc([N+](=O)[O-])cc2)cc1
- EC [1]: 100 nM

SMILES: Cc1ccccc1C(=O)NCc1ccc(CNS(=O)(=O)c2ccc([N+](=O)[O-])cc2)cc1
- EC [1]: 100 nM

SMILES: Cc1ccccc1C(=O)NCc1ccc(CNS(=O)(=O)c2cccc(F)c2)cc1
- EC [1]: 100 nM

SMILES: O=C(NCc1ccc(CNS(=O)(=O)c2ccc(Cl)cc2)cc1)c1cccnc1
- EC [1]: 1000 nM

SMILES: Cc1ccccc1C(=O)NCc1ccc(CNS(=O)(=O)c2ccccc2F)cc1
- EC [1]: 1000 nM

SMILES: O=C(NCc1ccc(CNS(=O)(=O)c2ccccc2Cl)cc1)c1cccnc1
- inhibition [2]: 96%
- inhibition [3]: Active
- EC [1]: 100 nM
- inhibition [4]: Active
- inhibition [5]: Active

SMILES: COc1ccccc1C(=O)NCc1ccc(CNS(=O)(=O)c2ccccc2Cl)cc1
- inhibition [2]: 99%
- inhibition [3]: Active
- EC [1]: 100 nM
- inhibition [5]: Active

SMILES: Cc1ccccc1C(=O)NCc1ccc(CNS(=O)(=O)c2cccc(Cl)c2)cc1
- inhibition [2]: 99%
- inhibition [3]: Active
- EC [1]: 100 nM
- inhibition [5]: Active

SMILES: COc1ccccc1C(=O)NCc1ccc(CNS(=O)(=O)c2ccccc2F)cc1
- EC [1]: 1 nM
- inhibition [6]: inactive

SMILES: Cc1ccccc1S(=O)(=O)NCc1ccc(CNC(=O)c2cccnc2)cc1
- EC [1]: 1000 nM

SMILES: O=C(NCc1ccc(CNS(=O)(=O)c2ccccc2F)cc1)c1cccnc1
- EC [1]: 100 nM

SMILES: Cc1ccccc1C(=O)NCc1ccc(CNS(=O)(=O)c2ccc(Cl)cc2)cc1
- EC [1]: 1 nM

SMILES: O=C(NCc1ccc(CNS(=O)(=O)c2ccc([N+](=O)[O-])cc2)cc1)c1cccnc1
- EC [1]: 100 nM
- inhibition [6]: inactive

SMILES: Cc1cccc(S(=O)(=O)NCc2ccc(CNC(=O)c3cccnc3)cc2)c1
- EC [1]: 10 nM

SMILES: COc1ccccc1C(=O)NCc1ccc(CNS(=O)(=O)c2cccc(F)c2)cc1
- EC [1]: 1000 nM

SMILES: COc1ccccc1C(=O)NCc1ccc(CNS(=O)(=O)c2ccc(Cl)cc2)cc1
- EC [1]: 1000 nM

SMILES: Cc1ccccc1C(=O)NCc1ccc(CNS(=O)(=O)c2ccc(F)cc2)cc1
- EC [1]: 10 nM

SMILES: Cc1ccccc1C(=O)NCc1ccc(CNS(=O)(=O)c2cccc3ccccc23)cc1
- EC [1]: 100 nM

SMILES: O=C(NCc1ccc(CNS(=O)(=O)c2cccc(F)c2)cc1)c1cccnc1
- EC [1]: 1000 nM

SMILES: O=C(NCc1ccc(CNS(=O)(=O)c2ccc(F)cc2)cc1)c1cccnc1
- inhibition [2]: 92%
- inhibition [3]: Active
- EC [1]: 100 nM
- Activity [7]: Non-Toxic
- inhibition [4]: Active
- Activity [8]: Active
- inhibition in vivo at 20 mg/kg [9]: 43%
- inhibition [5]: Active
- inhibition [10]: Active
- inhibition [11]: Dose-dependent effect
- inhibition [12]: Active
- inhibition [13]: Active
